Reference: ChEMBL document CHEMBL1201862, “PubChem BioAssay data set” (2004)
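Cultured in 96-well plates, cells were exposed to test compound for 48 hours across five concentrations. Abbreviation: GI50, concentration required for 50% inhibition of growth.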 Calls of active or inactive are those of the source. No stated cut-off is given here; in the data, active = GI50 up to about 1.1 µM and inactive = higher.

Assays:
Test in all cases: NCI anticancer screen, dose series, 48 h
CCRF-CEM = test system: CCRF-CEM
LXFL 529 = test system: LXFL 529
UO-31 = test system: UO-31
NCI-H23 = test system: NCI-H23
U-251 = test system: U-251
UACC-257 = test system: UACC-257
HT-29 = test system: HT-29
SK-MEL-2 = test system: SK-MEL-2
A549 = test system: A549
UACC-62 = test system: UACC-62
LOX IMVI = test system: LOX IMVI
EKVX = test system: EKVX
KM12 = test system: KM12
IGROV-1 = test system: IGROV-1
OVCAR-8 = test system: OVCAR-8
A498 = test system: A498
BT-549 = test system: BT-549
MCF7 = test system: MCF7
MDA-N = test system: MDA-N
MDA-MB-435 = test system: MDA-MB-435

| SMILES | GI50 (CCRF-CEM) | GI50 (LXFL 529) | GI50 (UO-31) | GI50 (NCI-H23) | GI50 (U-251) | GI50 (UACC-257) | GI50 (HT-29) | GI50 (SK-MEL-2) | GI50 (A549) | GI50 (UACC-62) | GI50 (LOX IMVI) | GI50 (EKVX) | GI50 (KM12) | GI50 (IGROV-1) | GI50 (OVCAR-8) | GI50 (A498) | GI50 (BT-549) | GI50 (MCF7) | GI50 (MDA-N) | GI50 (MDA-MB-435) |
| --- | --- | --- | --- | --- | --- | --- | --- | --- | --- | --- | --- | --- | --- | --- | --- | --- | --- | --- | --- | --- |
| O=C1CCC2(CC1)SCCCS2 | > 100 µM (inactive) | > 100 µM (inactive) | > 100 µM (inactive) | > 100 µM (inactive) | > 100 µM (inactive) | > 100 µM (inactive) | > 100 µM (inactive) | > 100 µM (inactive) | > 100 µM (inactive) | > 100 µM (inactive) | > 100 µM (inactive) | > 100 µM (inactive) | > 100 µM (inactive) | > 100 µM (inactive) | > 100 µM (inactive) | > 100 µM (inactive) | – | – | – | – |
| O=c1c(-c2cccc3ccccc23)c(-c2cccc3ccccc23)c1=O | 0.395 µM (active) | 3.05 µM (inactive) | 11.8 µM (inactive) | 2.49 µM (inactive) | 3.31 µM (inactive) | 4.25 µM (inactive) | 0.35 µM (active) | 2.29 µM (inactive) | 0.741 µM (active) | 1.04 µM (active) | 1.77 µM (inactive) | 7.67 µM (inactive) | 0.608 µM (active) | 2.6 µM (inactive) | 2.81 µM (inactive) | 2.45 µM (inactive) | – | – | – | – |
| CC1=C(C(=O)Nc2cc(=O)n(C)c(=O)n2C)C(c2cccc([N+](=O)[O-])c2)C(C(=O)Nc2cc(=O)n(C)c(=O)n2C)=C(C)N1 | > 100 µM (inactive) | > 100 µM (inactive) | 56.1 µM (inactive) | > 100 µM (inactive) | > 100 µM (inactive) | > 100 µM (inactive) | > 100 µM (inactive) | > 100 µM (inactive) | > 100 µM (inactive) | – | > 100 µM (inactive) | 15.9 µM (inactive) | > 100 µM (inactive) | > 100 µM (inactive) | > 100 µM (inactive) | 49.5 µM (inactive) | – | – | – | – |
| COC(=O)CC(NC(=O)OCc1ccccc1)C(C(=O)OCc1ccccc1)C1(C)OCCO1 (centres undefined) | 26.6 µM (inactive) | 18.8 µM (inactive) | 18.2 µM (inactive) | 26.4 µM (inactive) | 33.1 µM (inactive) | 30.4 µM (inactive) | 53.6 µM (inactive) | 20 µM (inactive) | 32.4 µM (inactive) | 18.7 µM (inactive) | 28.9 µM (inactive) | 44.4 µM (inactive) | – | 40 µM (inactive) | 25.2 µM (inactive) | 18.2 µM (inactive) | – | – | – | – |
| Cc1cc(Cl)cc2c1NC(=O)C2(O)CC(=O)c1ccc(Br)cc1 (centres undefined) | 18.6 µM (inactive) | 68.9 µM (inactive) | > 100 µM (inactive) | 43.4 µM (inactive) | 79.4 µM (inactive) | 32.6 µM (inactive) | 49.9 µM (inactive) | > 100 µM (inactive) | > 100 µM (inactive) | 21.6 µM (inactive) | 38.5 µM (inactive) | 59.4 µM (inactive) | 46.9 µM (inactive) | 66.8 µM (inactive) | 38.2 µM (inactive) | 37.8 µM (inactive) | – | – | – | – |
| COC(=O)NC1C(C)OC(OC2C/C=C(/C)C3C=CC4C(OC5CC(OC6CC(O)C(OC7CC(O)C(OC)C(C)O7)C(C)O6)C(O)C(C)O5)C(C)CC(C)C4C3(C)C(=O)C3=C(O)C4(CC(C)C(CO)=CC4/C=C\2C)OC3=O)CC1(C)[N+](=O)[O-] (centres undefined) | 2.79 µM (inactive) | 2.7 µM (inactive) | 17.1 µM (inactive) | 11.9 µM (inactive) | 10.9 µM (inactive) | 13.9 µM (inactive) | 15.7 µM (inactive) | 11.4 µM (inactive) | 22.6 µM (inactive) | 6.37 µM (inactive) | 11.5 µM (inactive) | 5.26 µM (inactive) | 14.5 µM (inactive) | 8.93 µM (inactive) | 9.38 µM (inactive) | 15.6 µM (inactive) | 13.5 µM (inactive) | 2.71 µM (inactive) | 9.55 µM (inactive) | 8.75 µM (inactive) |
| Cc1c(C(=O)CC(=O)C(=O)Nc2ccc(Cl)c(Cl)c2)[n+]([O-])c2ccccc2[n+]1[O-] | 17.2 µM (inactive) | 16.3 µM (inactive) | 55.1 µM (inactive) | 28.6 µM (inactive) | 26.8 µM (inactive) | 17.5 µM (inactive) | 29.9 µM (inactive) | 26.9 µM (inactive) | 27 µM (inactive) | 17.3 µM (inactive) | 21.1 µM (inactive) | 12.5 µM (inactive) | 25.1 µM (inactive) | 18.7 µM (inactive) | 17.2 µM (inactive) | > 100 µM (inactive) | – | – | – | – |
| N#C/C(=C\c1c(O)cc(O)cc1O)C(N)=O | > 100 µM (inactive) | > 100 µM (inactive) | > 100 µM (inactive) | > 100 µM (inactive) | > 100 µM (inactive) | > 100 µM (inactive) | > 100 µM (inactive) | > 100 µM (inactive) | > 100 µM (inactive) | – | > 100 µM (inactive) | > 100 µM (inactive) | > 100 µM (inactive) | – | > 100 µM (inactive) | > 100 µM (inactive) | – | – | – | – |
| O=C1OC(=O)C([Se]c2ccccc2)=C1[Se]c1ccccc1 | > 100 µM (inactive) | > 100 µM (inactive) | – | 32.4 µM (inactive) | > 100 µM (inactive) | > 100 µM (inactive) | 44.9 µM (inactive) | – | > 100 µM (inactive) | > 100 µM (inactive) | > 100 µM (inactive) | > 100 µM (inactive) | – | > 100 µM (inactive) | > 100 µM (inactive) | > 100 µM (inactive) | – | – | – | – |
| CCOC(=O)c1cnc2cc3cccccc3n2c1=O | > 100 µM (inactive) | > 100 µM (inactive) | > 100 µM (inactive) | > 100 µM (inactive) | > 100 µM (inactive) | > 100 µM (inactive) | > 100 µM (inactive) | > 100 µM (inactive) | > 100 µM (inactive) | > 100 µM (inactive) | > 100 µM (inactive) | > 100 µM (inactive) | 60.7 µM (inactive) | > 100 µM (inactive) | > 100 µM (inactive) | > 100 µM (inactive) | – | – | – | – |
| CCCCCCN(N)C(=O)CC#N | > 100 µM (inactive) | > 100 µM (inactive) | > 100 µM (inactive) | 65.6 µM (inactive) | 74.5 µM (inactive) | > 100 µM (inactive) | > 100 µM (inactive) | – | > 100 µM (inactive) | 60.4 µM (inactive) | 72.1 µM (inactive) | > 100 µM (inactive) | 23 µM (inactive) | > 100 µM (inactive) | > 100 µM (inactive) | > 100 µM (inactive) | – | – | – | – |
| COCNC(=NC#N)NCOC | > 100 µM (inactive) | > 100 µM (inactive) | > 100 µM (inactive) | > 100 µM (inactive) | > 58.5 µM (inactive) | > 100 µM (inactive) | > 100 µM (inactive) | > 100 µM (inactive) | > 71.9 µM (inactive) | > 100 µM (inactive) | > 41.7 µM (inactive) | > 100 µM (inactive) | > 52 µM (inactive) | > 100 µM (inactive) | > 100 µM (inactive) | > 100 µM (inactive) | – | – | – | – |
| CCOC(=O)c1c[nH]c2c(ccc3nn(C)nc32)c1=O | 34 µM (inactive) | > 100 µM (inactive) | > 100 µM (inactive) | > 100 µM (inactive) | 25.8 µM (inactive) | > 100 µM (inactive) | > 100 µM (inactive) | 19.4 µM (inactive) | 34 µM (inactive) | > 100 µM (inactive) | 10 µM (inactive) | > 100 µM (inactive) | > 100 µM (inactive) | > 100 µM (inactive) | > 100 µM (inactive) | > 100 µM (inactive) | – | – | – | – |
| Oc1ccccc1/C=C/c1csnn1 | > 100 µM (inactive) | > 100 µM (inactive) | > 100 µM (inactive) | > 100 µM (inactive) | > 100 µM (inactive) | > 100 µM (inactive) | > 100 µM (inactive) | > 100 µM (inactive) | > 100 µM (inactive) | > 100 µM (inactive) | > 52.1 µM (inactive) | > 100 µM (inactive) | > 100 µM (inactive) | > 100 µM (inactive) | > 100 µM (inactive) | > 100 µM (inactive) | – | – | – | – |
| CC(C(=O)c1ccc(Cl)cc1)C1OC(=O)C(Cl)=C1Cl (centres undefined) | 19 µM (inactive) | 19.8 µM (inactive) | 95.9 µM (inactive) | 25.2 µM (inactive) | > 100 µM (inactive) | 35.6 µM (inactive) | 31.6 µM (inactive) | 23.2 µM (inactive) | > 100 µM (inactive) | 19.7 µM (inactive) | 24.3 µM (inactive) | 39.4 µM (inactive) | 33.9 µM (inactive) | 29.3 µM (inactive) | 32.5 µM (inactive) | 41.5 µM (inactive) | – | – | – | – |
| O=NN(CCCl)C(=O)N[C@H]1CC[C@H](CC(=O)O)CC1 | 21.1 µM (inactive) | > 100 µM (inactive) | > 100 µM (inactive) | > 89.1 µM (inactive) | 33.2 µM (inactive) | > 100 µM (inactive) | > 100 µM (inactive) | > 100 µM (inactive) | 87.3 µM (inactive) | 15.4 µM (inactive) | 22.1 µM (inactive) | > 46.5 µM (inactive) | > 100 µM (inactive) | > 100 µM (inactive) | > 100 µM (inactive) | > 100 µM (inactive) | – | > 100 µM (inactive) | – | – |
| Cc1cc(Cl)ccc1NC(=O)/C(=N\NC(C)(C)C)C(C#N)c1nc(-c2ccc([N+](=O)[O-])cc2)cs1 (centres undefined) | > 100 µM (inactive) | > 100 µM (inactive) | > 100 µM (inactive) | > 100 µM (inactive) | > 100 µM (inactive) | > 100 µM (inactive) | > 100 µM (inactive) | > 100 µM (inactive) | > 100 µM (inactive) | > 100 µM (inactive) | > 100 µM (inactive) | > 100 µM (inactive) | > 100 µM (inactive) | > 100 µM (inactive) | > 100 µM (inactive) | > 100 µM (inactive) | – | – | – | – |
